Assay [1] deals with human colon carcinoma cells HCT-116. Nature of the assay: In vitro cytotoxicity (XTT assay), 72 h, HCT-116 human colon carcinoma cells. The assay is classed as cell-based. The following applies: read-out: IC50, drug concentration required to inhibit cell proliferation to 50% of untreated control. In general terms: Formazan colour is commonly taken as a measure of viable cells.
Assay [2] concerns human colon carcinoma cells HCT-116/VM46. Briefly: In vitro cytotoxicity (XTT assay), 72 h, HCT-116/VM46 multi-drug resistant cells. The following applies: for IC50: Homo sapiens, read-out: IC50, drug concentration required to inhibit cell proliferation to 50% of untreated control. The format is cell-based.
The subject of assay [3] is advanced cases of ovarian, breast, and other cancers. Particulars: NCI trials; cited from earlier work.
Where [4] appears, read: HCT-116/VM46 vs HCT-116, value in parentheses, 4320 min.
The mark [5] stands for this setting: HCT-116/VM46 (teniposide-selected, multi-drug resistant), XTT, 72 h.

Read-outs that look alike come from different tables or passages of the source.

On to `CC(=O)O[C@@]12CO[C@@H]1C[C@H](O)[C@@]1(C)C(=O)[C@H](O)C3=C(C)[C@@H](OC(=O)[C@H](O)[C@@H](NC(=O)OC(C)(C)C)c4ccccc4)C[C@@](O)([C@@H](OC(=O)c4ccccc4)[C@H]21)C3(C)C` [taxotere, reference compound], for which the IC50 in assay [1] (HCT-116, XTT, 72 h) came out at 4 nM; in assay [2] (setting [5]), 213 nM. Moreover, the “fold resistance relative to HCT116 cells” value in assay [2] (setting [4]) worked out at 53 fold.

Consider `CC(=O)O[C@H]1C(=O)[C@]2(C)CC[C@H]3OC[C@@]3(OC(C)=O)[C@H]2[C@H](OC(=O)c2ccccc2)[C@]2(O)C[C@H](OC(=O)[C@H](O)[C@@H](NC(=O)OC(C)(C)C)c3ccccc3)C(C)=C1C2(C)C` [Ia, N-Debenzoyl-N-t-butoxycarbonyl-7-deoxytaxol], for which the IC50 in assay [1] (HCT-116, XTT, 72 h) worked out at 2 nM; in assay [2] (setting [5]), 7 nM. For the same compound, the “fold resistance relative to HCT116 cells” value in assay [2] (setting [4]) was 3.5 fold.

On to `CC(=O)O[C@H]1C(=O)[C@]2(C)CC[C@H]3OC[C@@]3(OC(C)=O)[C@H]2[C@H](OC(=O)c2ccccc2)[C@]2(O)C[C@H](OC(=O)[C@H](O)[C@@H](NC(=O)c3ccccc3)c3ccccc3)C(C)=C1C2(C)C` [Ib, 7-Deoxytaxol], for which the IC50 in assay [1] (HCT-116, XTT, 72 h) is 4 nM; in assay [2] (setting [5]) it was 55 nM. For the same compound, the “fold resistance relative to HCT116 cells” value in assay [2] (setting [4]) is on record as 14 fold.

For the compound `CC(=O)O[C@H]1C(=O)[C@@]2(C)[C@H]([C@H](OC(=O)c3ccccc3)[C@]3(O)C[C@H](OC(=O)[C@H](O)[C@@H](NC(=O)c4ccccc4)c4ccccc4)C(C)=C1C3(C)C)[C@]1(OC(C)=O)CO[C@@H]1C[C@@H]2O` [Taxol], in assay [3], the “clinical results in advanced cancers (in words)” value is recorded as “promising results”. In addition, the IC50 in assay [1] (HCT-116, 72 h) came to 4 nM; in assay [2] (HCT-116/VM46, 72 h), 440 nM. For the same compound, the “fold resistance relative to HCT116 cells” value in assay [2] (human, hct-116/vm46 vs hct-116, 4320 min) is on record as 124 fold.

Turning to `CC(=O)O[C@@]12CO[C@@H]1CC[C@@]1(C)C(=O)CC3=C(C)[C@@H](OC(=O)[C@H](O)[C@@H](NC(=O)c4ccccc4)c4ccccc4)C[C@@](O)([C@@H](OC(=O)c4ccccc4)[C@H]21)C3(C)C` [Id, 7-Deoxy-10-desacetyloxytaxol], the IC50 in assay [1] (HCT-116, 72 h) was 29 nM.

Take `CC(=O)O[C@@]12CO[C@@H]1CC[C@@]1(C)C(=O)CC3=C(C)[C@@H](OC(=O)[C@H](O)[C@@H](NC(=O)OC(C)(C)C)c4ccccc4)C[C@@](O)([C@@H](OC(=O)c4ccccc4)[C@H]21)C3(C)C` [Ic, N-Debenzoyl-N-t-butoxycarbonyl-7-deoxy-10-deoxy-10-desacetyloxytaxol]: in assay [1] (HCT-116, 72 h), the IC50 stood at 12 nM.

The record behind these values is patent US5478854A, “Deoxy taxols” (Bristol-Myers Squibb Company, priority 1994, dated 1995).
